Data on 14 compounds can be found in US20260207637A1, “MODULATOR FOR PROMOTING BINDING OF BUTYROPHILIN 3A1/2A1” (priority 2023, published 2026).

A value given as a limit tells only on which side of the number the result lay.

Series [1] deals with MIApaca/FG2 cells. The series can be described thus: EC50 assay of small molecule activated γδ T cells to kill MIApaca/FG2 tumor cells (10-fold dilution protocol). The class given is cell-based. Here is the method:
γδT cells and MIApaca/FG2 tumor cell lines were expanded and cultured in vitro. The MIApaca/FG2 cells were digested, and the cells were counted and resuspended in DMEM complete medium, the density of the cell suspension was adjusted and added into a 96-well plate at 5×10^3 cells/50 μL/well for overnight incubation. On the next day, the test compound and the control compound were diluted at a 10-fold ratio with γδT complete medium. 50 μL of diluted compound was transferred to the corresponding wells which had been plated with tumor cells, and the actual detection concentration was in the range of 10^−12-10^−5 M. γδT cells were resuspended in γδT complete medium, and the density of the cell suspension was adjusted according to the effector-target ratio of E:T=2:1, and then the cells were added to the corresponding wells at 1×10^4 cells/50 μL/well. After co-culture at 37° C., 5% CO2 for 20 hours, the cells were centrifuged. The supernatant was removed, and 50 μL of cell lysate containing luciferin substrate was added to each well. After standing for 18 minutes in the dark, the signal of chemiluminescence was detected. The EC50 value was calculated by four-parameter fitting, with the corresponding signal value of the well with only tumor cells as the minimum killing value, and the corresponding signal value of the well without tumor cells as the maximum killing value. The killing data of MIApaca/FG2 cells is as follows: […]

Series [2] relates to MIApaca/FG2 cells. The series can be described thus: EC50 assay of small molecule activated γδ T cells to kill MIApaca/FG2 tumor cells (3-fold dilution protocol). The class given is cell-based. The following applies: Homo sapiens, MIA PaCa-2, γδT cells + MIApaca/FG2, E:T=2:1, co-culture 20 hours, 0.05-100 nM, read-out: MIApaca killing (EC50). Here is the method:
γδT cells and MIApaca/FG2 tumor cell lines were expanded and cultured in vitro. MIApaca/FG2 cells were digested, and the cells were counted and resuspended in DMEM complete medium, the density of the cell suspension was adjusted and added into a 96-well plate at 5×10^3 cells/100 […]/well for overnight incubation. On the next day, the test compound and the control compound were diluted at a 3-fold ratio with DMSO, and 4 μL of the diluted compound was added to 96 μL of culture medium for 25-fold dilution. 5 μL of 25-fold diluted compound was transferred to the corresponding well which had been plated with tumor cells, and the actual detection concentration was in the range of 0.05-100 nM. γδT cells were resuspended in γδT complete medium, and the density of the cell suspension was adjusted according to the effector-target ratio of E:T=2:1, and then the cell was added to the corresponding well at 1×10^4 cells/100 μL/well. After co-culture at 37° C., 5% CO2 for 20 hours, the cells were centrifuged. The supernatant was removed, and 50 μL of cell lysate containing fluorescein substrate was added to each well. After standing for 18 minutes in the dark, the signal of chemiluminescence was detected. The EC50 value was calculated by four-parameter fitting, with the corresponding signal value of the well with only tumor cells as the minimum killing value, and the corresponding value of the well without tumor cells as the maximum killing value. The killing data of MIApaca/FG2 cells is as follows: […]

Series [3] in a line: Binding rate test of compounds and human plasma protein (equilibrium dialysis). In kind it is in vitro ADME. To be noted: human plasma, equilibrium dialysis 6 hours, 37° C. Here is the method: (1) The dry dialysis membrane was soaked with ultrapure water for 20 min or more than 20 min, then soaked with 20% ethanol for 30 min to 1 h, and the membrane was rinsed with ultrapure water 2-3 times. Finally, the membrane was soaked with ultrapure water for 20 minutes for later use.
(2) The frozen plasma was thawed in a water bath at 37° C.
(3) The test compound was diluted into plasma preheated to 37° C. at a final concentration of 1 μM, and the final concentration of the control compound warfarin in plasma was 2 μM.
(4) The pre-treated dialysis membrane was assembled into the dialysis plate according to the specification of the product, and 120 μL of the receiving solution (100 mM phosphate buffer solution added 0.002% Tween 80) was added to one side of the permeable membrane in each dialysis well.
(5) 20 μL of each of the final solutions of the test compound and the control compound were added into a 96-well sample plate in duplicate, and the TO sample was obtained, which was stored in a refrigerator at −20° C. Another 20 μL of the above final solution was added to the other side of the membrane in the dialysis device in duplicate, and incubated at 37° C. by shaking at constant temperature for 6 hours.
(6) After 6 hours of incubation, 20 L of each of the dialyzed receiving solution and the administered plasma were weighed to obtain sample B and sample A in duplicate. The corresponding volume of corresponding blank plasma or receiving solution was added to sample B and sample A, respectively, so that the volume ratio of plasma to buffer in each sample well was 1:1. 300 μL of acetonitrile solution containing internal standard was added to all sample wells, and centrifuged after mixed uniformly.
(7) 200 μL of ultrapure water (150 μL for the control group) was added into the corresponding sample wells of the 96-well sample plate, and 300 μL of the supernatant (150 μL for the control group) was added into the sample well; the samples were analyzed after mixed uniformly. The free percentage and recovery rate of the compound in plasma were calculated using the following formula: Plasma protein binding rate (%)=1−free percentage, wherein free percentage (%)=CB/CA
wherein CB is the concentration of the compound in the receiving solution after equilibrium dialysis, CA is the concentration of the compound in the drug-dosed plasma after equilibrium dialysis, and CT0 is the initial concentration of the compound in plasma.
In general terms: In equilibrium dialysis only unbound substance equilibrates across the membrane.

Series [4] is described as follows: Stability experiment of compounds in human liver microsomes. In kind it is in vitro ADME. To be noted: NADPH, 37° C., read-out: T1/2 in human liver microsomes. The protocol: Compounds were prepared as a 10 mM stock solution with DMSO and then diluted with 80% acetonitrile-water to a 100 μM working solution for later use. Human liver microsomes were obtained from BIOIVT.
(1) The liver microsomes taken out from the refrigerator were placed in a 37° C. water bath thermostatic oscillator, pre-incubated for 5 min, and thawed for later use.
(2) A certain amount of NADPH was weighed and added to an appropriate amount of magnesium chloride solution to dissolve into a 2 mM solution for later use.
(3) A mixed solution of the warm incubation system (containing no β-NADPH) was prepared according to the proportions in the “composition of the experimental warm incubation system” above and dispensed at 165 μL/tubes (45 μL/tube for the negative control group and 120 μL/tube for the positive control group).
(4) For the sample at 0 min: 200 μL of internal standard working precipitant was added and then 30 μL of NADPH solution was added.
(5) For other samples: 135 μL NADPH solution was added to initiate the reaction (45 μL magnesium chloride solution was added for the negative control group), and incubated in a 37° C. water bath for 5, 15, 30, and 60 min (incubated in a 37° C. water bath for 60 min for the negative control group), then 60 μL was sampled and added to 200 µL of precipitant containing internal standard.
(6) For the positive control group: 90 L NADPH solution was added to initiate the reaction, and incubated in a 37° C. water bath for 5, 15 min, then 60 μL was sampled and added to 200 μL of precipitant containing internal standard.
(7) For neat sample: 297 μL of water was pipetted into a tube, 1000 μL of internal standard working solution was added, and 3 μL of test compound working solution was added.
(8) All samples were vortexed and centrifuged.
(9) 150 μL of the supernatant was sampled and added to 150 μL of water, mixed uniformly by vortex, and analyzed by LC-MS/MS. The half-life stability data of human liver microsomes is as follows: […]
On the technique in general: Liver microsomes are vesicles of endoplasmic reticulum, rich in cytochrome P450 enzymes.

The mark [5] stands for this setting: read-out: MIApaca killing (EC50), γδT cells + MIApaca/FG2, E:T=2:1, co-culture 20 hours, 10^-12-10^-5 M.
Where [6] appears, read: Homo sapiens, MIA PaCa-2, γδT cells + MIApaca/FG2, E:T=2:1, co-culture 20 hours, 10^-12-10^-5 M, read-out: MIApaca killing (EC50).

Consider `CC/C(=C\CCP(=O)(N[C@@H](C)C(=O)OC(C)C)Oc1ccccc1)CO` (stereo partly drawn) [Compound 4, Isopropyl (((E)-5-hydroxy-4-ethylpent-3-en-1-yl)(phenoxy)phosphoryl)-L-alaninate], for which the EC50 with MIApaca/FG2 cells [1] (setting [5]) came out at 174 nM.

As to `C[C@H](NP(=O)(OC/C=C(/CO)C(F)(F)F)Oc1ccccc1)C(=O)O[C@H]1CCOC1` (stereo partly drawn) [Compound 12, (S)-tetrahydrofuran-3-yl ((phenoxy)(((Z)-4,4,4-trifluoro-3-(hydroxymethyl)but-2-en-1-yl)oxy)phosphoryl)-L-alaninate], the EC50 with MIApaca/FG2 cells [1] (setting [6]) was 5.1 nM.

With `CC(C)OC(=O)[C@H](C)NP(=O)(CC/C=C/CO)Oc1ccccc1` (stereo partly drawn) [Compound 5, Isopropyl (((E)-5-hydroxypent-3-en-1-yl)(phenoxy)phosphoryl)-L-alaninate], the EC50 in the series on MIApaca/FG2 cells [1] (setting [5]) is 11.6 nM.

In the case of `C/C(=C\COP(=O)(O)OP(=O)(O)O)CO` [HMBPP control, reference compound], in the series with MIApaca/FG2 cells [1] (γδT cells + MIApaca/FG2, E:T=2:1, co-culture 20 hours, 10^-12-10^-5 M, read-out: MIApaca killing (EC50)), the EC50 came out at 2.1 nM.

For the compound `CC(C)OC(=O)[C@H](C)NP(=O)(CCC=C(CO)CO)Oc1ccccc1` (stereo partly drawn) [Compound 1, Isopropyl ((5-hydroxy-4-(hydroxymethyl)pent-3-en-1-yl)(phenoxy)phosphoryl)-L-alaninate], the EC50 with MIApaca/FG2 cells [1] (setting [5]) came out at 57.1 nM.

For the compound `C[C@H](NP(=O)(OC/C=C(/CO)C(F)(F)F)Oc1ccccc1)C(=O)OCC1CC1` (stereo partly drawn) [Compound 9, Cyclopropylmethyl ((phenoxy)(((Z)-4,4,4-trifluoro-3-(hydroxymethyl)but-2-en-1-yl)oxy)phosphoryl)-L-alaninate], the EC50 in the series with MIApaca/FG2 cells [1] (setting [6]) was 9.9 nM.

Consider `CCC(CC)COC(=O)[C@H](C)NP(=O)(OC/C=C(/CO)C(F)(F)F)Oc1ccccc1` (stereo partly drawn) [Compound 10, 2-Ethylbutyl ((phenoxy)(((Z)-4,4,4-trifluoro-3-(hydroxymethyl)but-2-en-1-yl)oxy)phosphoryl)-L-alaninate], for which the EC50 in the series on MIApaca/FG2 cells [1] (setting [6]) turned out to be 12.8 nM.

`CCC(CC)COC(=O)[C@H](C)NP(=O)(CC/C=C(\C)CO)Oc1ccccc1` (stereo partly drawn) [Compound 2, 2-Ethylbutyl (((E)-5-hydroxy-4-methylpent-3-en-1-yl)(phenoxy)phosphoryl)-L-alaninate]: the EC50 in the series with MIApaca/FG2 cells [1] (setting [5]) was determined as 0.19 nM.

Take `C[C@H](NP(=O)(OC/C=C(/CO)C(F)(F)F)Oc1ccccc1)C(=O)O[C@@H]1CCOC1` (stereo partly shown) [Compound 13]: the EC50 in the series with MIApaca/FG2 cells [1] (setting [6]) stood at 6.6 nM.

For the compound `CC(C)OC(=O)[C@H](C)NP(=O)(OC/C=C(/CO)C(F)(F)F)Oc1cccc2ccccc12` (stereo partly drawn) [Compound 14, isopropyl ((naphthyloxy)(((Z)-4,4,4-trifluoro-3-(hydroxymethyl)but-2-en-1-yl)oxy)phosphoryl)-L-alaninate], the EC50 in the series with MIApaca/FG2 cells [1] (setting [6]) worked out at 67 nM.

`CC(C)OC(=O)[C@H](C)NP(=O)(OC/C=C(/CO)C(F)(F)F)Oc1ccccc1` (stereo partly drawn) [Compound 3, Isopropyl ((phenoxy)(((Z)-4,4,4-trifluoro-3-(hydroxymethyl)but-2-en-1-yl)oxy)phosphoryl)-L-alaninate]: the EC50 in the series on MIApaca/FG2 cells [1] (setting [6]) is 8 nM.

Take `C/C(=C\CCP(=O)(N[C@@H](C)C(=O)OC1CCCC1)Oc1ccccc1)CO` (stereo partly drawn) [Compound 6, Cyclopentyl (((E)-5-hydroxy-4-methylpent-3-en-1-yl)(phenoxy)phosphoryl)-L-alaninate]: the EC50 in the series on MIApaca/FG2 cells [1] (setting [5]) was determined as 0.098 nM.

On to `C[C@H](NP(=O)(OC/C=C(/CO)C(F)(F)F)Oc1ccccc1)C(=O)OC1CCCC1` (stereo partly drawn) [Compound 11, Cyclopentyl ((phenoxy)(((Z)-4,4,4-trifluoro-3-(hydroxymethyl)but-2-en-1-yl)oxy)phosphoryl)-L-alaninate], for which the EC50 in the series with MIApaca/FG2 cells [1] (setting [6]) is 35.4 nM.

For the compound `C/C(=C\CCP(=O)(N[C@@H](C)C(=O)OC1(C#N)CCCC1)Oc1ccccc1)CO` (stereo partly drawn) [Compound 36, 1-Cyanocyclopentyl (((E)-5-hydroxy-4-methylpent-3-en-1-yl)(phenoxy)phosphoryl)-L-alaninate], in the series on MIApaca/FG2 cells [2], the EC50 is less than 0.05 nM. For the same compound, the free fraction (fraction unbound) (in general, the share of the substance not bound to proteins or other matrix) at 6 h, 1 μM in series [3] is 0.038. The half-life in series [4] is 3.08 min.
